Series [1] is described as follows: Therapeutic drug monitoring: steady-state trough serum sertraline concentration.
The conditions of series [2]: cited from earlier work.
For series [3] the following is noted: dose-response meta-analysis; cited from earlier work.
[4] abbreviates: Female, Adults, median (1st quartile, 3rd quartile), listed as sertraline.

On to `CN[C@H]1CC[C@@H](c2ccc(Cl)c(Cl)c2)c2ccccc21` [Sertraline], for which the “C/D (dose-adjusted serum concentration)” value is recorded as 0.50 (0.33, 0.71) (ng/ml)/(mg/d) in series [1] (Adults, median (1st quartile, 3rd quartile)); 0.50 (ng/ml)/(mg/d) in series [1] (Adults, median (1st quartile, 3rd quartile), listed as sertraline); 0.44 (0.31, 0.67) (ng/ml)/(mg/d) in series [1] (Children and Adolescents, median (1st quartile, 3rd quartile)); 0.44 (ng/ml)/(mg/d) in series [1] (Children and Adolescents, median (1st quartile, 3rd quartile), listed as sertraline); 0.47 (0.32, 0.69) (ng/ml)/(mg/d) in series [1] (Total, median (1st quartile, 3rd quartile)). Besides, the “Serum Concentration” value in series [1] (Female, Adults, median (1st quartile, 3rd quartile)) was 62.3 (33.5, 102.0) ng/mL; in series [1] (setting [4]), 62.3 ng/mL; in series [1] (Female, Children and Adolescents, median (1st quartile, 3rd quartile)), 53.2 (32.4, 86.2) ng/mL; in series [1] (Female, Total, median (1st quartile, 3rd quartile)), 57.0 (32.9, 95.5) ng/mL; in series [1] (Male, Adults, median (1st quartile, 3rd quartile)), 55.8 (35.0, 86.0) ng/mL; in series [1] (Male, Adults, median (1st quartile, 3rd quartile), listed as sertraline) it was 55.8 ng/mL. Besides, the “Serum Concentration” value in series [1] (Male, Children and Adolescents, median (1st quartile, 3rd quartile)) is listed as 41.8 (23.9, 65.5) ng/mL; in series [1] (Male, Total, median (1st quartile, 3rd quartile)), 52.4 (31.6, 81.3) ng/mL. In series [1] (setting [4]), the C/D was 0.51 (ng/ml)/(mg/d). Besides, the “Coefficient of variation (CV) of C/D value” in series [1] (adults, interindividual) came to 61.1%; in series [1] (younger patients (children and adolescents), interindividual) it was 80.6%. In addition, the “Coefficient of variation (CV) of sertraline concentration” value in series [1] (adults, interindividual) amounted to 68.0%. For the same compound, the “reference range of serum concentration” value in series [2] (children and adolescents, TDM-VIGIL study) is 66 to 76 ng/mL. Further, in series [2] (interindividual pharmacokinetic variability), the “coefficient of variation of concentration” value is on record as 59%. Further, the effective daily range in series [3] is 50 to 150 mg.

The record behind these values is paper PMC12142871 (BMC Psychiatry, 2025).
